Test results: the NIST ThermoML archive (doi:10.1021/acs.jced.5b00934)

Details: Liquid, Vibrating tube method

CC(C)(C)O [2-methylpropan-2-ol]
Details | mass density [kg/m3]
303.15 K, 99 kPa | 775.3
303.15 K, 298 kPa | 775.5
303.15 K, 499 kPa | 775.7
303.15 K, 898 kPa | 776.1
303.15 K, 1002 kPa | 776.2
303.15 K, 2007 kPa | 777.1
303.15 K, 3007 kPa | 778.1
303.15 K, 4999 kPa | 780
303.15 K, 7003 kPa | 781.9
303.15 K, 8992 kPa | 783.7
303.15 K, 10005 kPa | 784.6
303.15 K, 11999 kPa | 786.3
308.15 K, 97 kPa | 770.2
308.15 K, 298 kPa | 770.4
308.15 K, 500 kPa | 770.6
308.15 K, 897 kPa | 771
308.15 K, 1002 kPa | 771.1
308.15 K, 2009 kPa | 772.1
308.15 K, 3000 kPa | 773.1
308.15 K, 5006 kPa | 775.1
308.15 K, 9006 kPa | 778.8
308.15 K, 10007 kPa | 779.7
308.15 K, 12005 kPa | 781.5
308.15 K, 15021 kPa | 784.1
308.15 K, 19998 kPa | 788.2
308.15 K, 22003 kPa | 789.8
308.15 K, 24990 kPa | 792.2
308.15 K, 28006 kPa | 794.5
308.15 K, 30005 kPa | 796
308.16 K, 7005 kPa | 777
308.16 K, 18006 kPa | 786.6
313.15 K, 99 kPa | 764.8
313.15 K, 298 kPa | 765
313.15 K, 502 kPa | 765.2
313.15 K, 904 kPa | 765.7
313.15 K, 1009 kPa | 765.8
313.15 K, 2016 kPa | 766.8
313.15 K, 3006 kPa | 767.8
313.15 K, 5010 kPa | 769.9
313.15 K, 7006 kPa | 771.8
313.15 K, 9005 kPa | 773.7
313.15 K, 10007 kPa | 774.7
313.15 K, 12005 kPa | 776.5
313.15 K, 15005 kPa | 779.2
313.15 K, 18003 kPa | 781.8
313.15 K, 20015 kPa | 783.5
313.15 K, 22002 kPa | 785.1
313.15 K, 25007 kPa | 787.5
313.15 K, 28002 kPa | 789.9
313.15 K, 30000 kPa | 791.4
313.15 K, 33001 kPa | 793.7
313.15 K, 33012 kPa | 793.6
313.15 K, 34006 kPa | 794.4
313.15 K, 35008 kPa | 795.1
313.15 K, 38012 kPa | 797.2
313.15 K, 40002 kPa | 798.6
313.15 K, 42007 kPa | 800
313.15 K, 44997 kPa | 802
313.16 K, 32001 kPa | 792.9
318.15 K, 100 kPa | 759.4
318.15 K, 298 kPa | 759.6
318.15 K, 498 kPa | 759.8
318.15 K, 901 kPa | 760.3
318.15 K, 1006 kPa | 760.4
318.15 K, 2001 kPa | 761.5
318.15 K, 3003 kPa | 762.6
318.15 K, 5002 kPa | 764.7
318.15 K, 7005 kPa | 766.7
318.15 K, 8999 kPa | 768.7
318.15 K, 10002 kPa | 769.7
318.15 K, 11999 kPa | 771.6
318.15 K, 15010 kPa | 774.4
318.15 K, 17998 kPa | 777
318.15 K, 20006 kPa | 778.8
318.15 K, 21999 kPa | 780.5
318.15 K, 24994 kPa | 782.9
318.15 K, 28005 kPa | 785.4
318.15 K, 30001 kPa | 787
318.15 K, 32001 kPa | 788.5
318.15 K, 32993 kPa | 789.3
318.15 K, 33002 kPa | 789.3
318.15 K, 34010 kPa | 790
318.15 K, 35001 kPa | 790.8
318.15 K, 38000 kPa | 793
318.15 K, 40010 kPa | 794.4
318.15 K, 42021 kPa | 795.9
318.15 K, 45005 kPa | 797.9
318.15 K, 47997 kPa | 799.9
318.15 K, 49998 kPa | 801.3
318.15 K, 52004 kPa | 802.6
318.15 K, 55002 kPa | 804.6
318.15 K, 57994 kPa | 806.5
318.15 K, 60002 kPa | 807.7
323.15 K, 99 kPa | 753.9
323.15 K, 298 kPa | 754.1
323.15 K, 502 kPa | 754.4
323.15 K, 901 kPa | 754.9
323.15 K, 1004 kPa | 755
323.15 K, 2003 kPa | 756.1
323.15 K, 3002 kPa | 757.2
323.15 K, 5004 kPa | 759.4
323.15 K, 7002 kPa | 761.5
323.15 K, 9002 kPa | 763.5
323.15 K, 10002 kPa | 764.5
323.15 K, 12000 kPa | 766.5
323.15 K, 14999 kPa | 769.3
323.15 K, 17998 kPa | 772.1
323.15 K, 20000 kPa | 773.9
323.15 K, 22000 kPa | 775.7
323.15 K, 25000 kPa | 778.2
323.15 K, 27995 kPa | 780.7
323.15 K, 30002 kPa | 782.4
323.15 K, 32000 kPa | 784
323.15 K, 33000 kPa | 784.7
323.15 K, 33001 kPa | 784.7
323.15 K, 34000 kPa | 785.5
323.15 K, 35004 kPa | 786.2
323.15 K, 38000 kPa | 788.5
323.15 K, 39998 kPa | 790
323.15 K, 41998 kPa | 791.5
323.15 K, 45000 kPa | 793.6
323.15 K, 47996 kPa | 795.7
323.15 K, 50000 kPa | 797.1
323.15 K, 51998 kPa | 798.4
323.15 K, 55006 kPa | 800.5
323.15 K, 57995 kPa | 802.4
323.15 K, 60000 kPa | 803.7
328.15 K, 101 kPa | 748.4
328.15 K, 298 kPa | 748.7
328.15 K, 499 kPa | 748.9
328.15 K, 898 kPa | 749.4
328.15 K, 1005 kPa | 749.5
328.15 K, 2001 kPa | 750.7
328.15 K, 3001 kPa | 751.9
328.15 K, 5001 kPa | 754.1
328.15 K, 7001 kPa | 756.3
328.15 K, 9004 kPa | 758.5
328.15 K, 9999 kPa | 759.5
328.15 K, 11999 kPa | 761.6
328.15 K, 15004 kPa | 764.5
328.15 K, 18006 kPa | 767.4
328.15 K, 19995 kPa | 769.2
328.15 K, 22000 kPa | 771
328.15 K, 24996 kPa | 773.6
328.15 K, 27998 kPa | 776.2
328.15 K, 30005 kPa | 777.9
328.15 K, 32005 kPa | 779.5
328.15 K, 33023 kPa | 780.3
328.15 K, 33038 kPa | 780.4
328.15 K, 34013 kPa | 781.1
328.15 K, 35004 kPa | 781.9
328.15 K, 38002 kPa | 784.3
328.15 K, 40024 kPa | 785.8
328.15 K, 41999 kPa | 787.2
328.15 K, 45002 kPa | 789.4
328.15 K, 47997 kPa | 791.6
328.15 K, 49992 kPa | 793
328.15 K, 55000 kPa | 796.4
328.15 K, 57995 kPa | 798.3
328.15 K, 60003 kPa | 799.6
328.16 K, 51996 kPa | 794.3
333.15 K, 103 kPa | 742.8
333.15 K, 307 kPa | 743.1
333.15 K, 502 kPa | 743.3
333.15 K, 915 kPa | 743.8
333.15 K, 1007 kPa | 744
333.15 K, 2013 kPa | 745.2
333.15 K, 3006 kPa | 746.4
333.15 K, 5002 kPa | 748.8
333.15 K, 7005 kPa | 751.1
333.15 K, 9001 kPa | 753.3
333.15 K, 9999 kPa | 754.3
333.15 K, 12003 kPa | 756.5
333.15 K, 15000 kPa | 759.6
333.15 K, 17995 kPa | 762.5
333.15 K, 19997 kPa | 764.4
333.15 K, 21996 kPa | 766.2
333.15 K, 24994 kPa | 768.9
333.15 K, 27993 kPa | 771.6
333.15 K, 30003 kPa | 773.3
333.15 K, 32004 kPa | 775
333.15 K, 32850 kPa | 775.7
333.15 K, 32871 kPa | 775.7
333.15 K, 34000 kPa | 776.6
333.15 K, 34990 kPa | 777.4
333.15 K, 38004 kPa | 779.8
333.15 K, 39997 kPa | 781.4
333.15 K, 41998 kPa | 782.9
333.15 K, 44909 kPa | 785.1
333.15 K, 48119 kPa | 787.4
